Results on 21 compounds are retold here after patent US20260138961A1, “MODULATORS OF MITOCHONDRIAL DNA REPLICATION” (Pretzel Therapeutics, Inc., priority 2022, published 2026).

Structures are written as SMILES.

The target of the experiment is T1, POLγA:A467T (Homo sapiens, UniProt P54098, A467T).
T1 sequence (P54098 1-1239 A467T): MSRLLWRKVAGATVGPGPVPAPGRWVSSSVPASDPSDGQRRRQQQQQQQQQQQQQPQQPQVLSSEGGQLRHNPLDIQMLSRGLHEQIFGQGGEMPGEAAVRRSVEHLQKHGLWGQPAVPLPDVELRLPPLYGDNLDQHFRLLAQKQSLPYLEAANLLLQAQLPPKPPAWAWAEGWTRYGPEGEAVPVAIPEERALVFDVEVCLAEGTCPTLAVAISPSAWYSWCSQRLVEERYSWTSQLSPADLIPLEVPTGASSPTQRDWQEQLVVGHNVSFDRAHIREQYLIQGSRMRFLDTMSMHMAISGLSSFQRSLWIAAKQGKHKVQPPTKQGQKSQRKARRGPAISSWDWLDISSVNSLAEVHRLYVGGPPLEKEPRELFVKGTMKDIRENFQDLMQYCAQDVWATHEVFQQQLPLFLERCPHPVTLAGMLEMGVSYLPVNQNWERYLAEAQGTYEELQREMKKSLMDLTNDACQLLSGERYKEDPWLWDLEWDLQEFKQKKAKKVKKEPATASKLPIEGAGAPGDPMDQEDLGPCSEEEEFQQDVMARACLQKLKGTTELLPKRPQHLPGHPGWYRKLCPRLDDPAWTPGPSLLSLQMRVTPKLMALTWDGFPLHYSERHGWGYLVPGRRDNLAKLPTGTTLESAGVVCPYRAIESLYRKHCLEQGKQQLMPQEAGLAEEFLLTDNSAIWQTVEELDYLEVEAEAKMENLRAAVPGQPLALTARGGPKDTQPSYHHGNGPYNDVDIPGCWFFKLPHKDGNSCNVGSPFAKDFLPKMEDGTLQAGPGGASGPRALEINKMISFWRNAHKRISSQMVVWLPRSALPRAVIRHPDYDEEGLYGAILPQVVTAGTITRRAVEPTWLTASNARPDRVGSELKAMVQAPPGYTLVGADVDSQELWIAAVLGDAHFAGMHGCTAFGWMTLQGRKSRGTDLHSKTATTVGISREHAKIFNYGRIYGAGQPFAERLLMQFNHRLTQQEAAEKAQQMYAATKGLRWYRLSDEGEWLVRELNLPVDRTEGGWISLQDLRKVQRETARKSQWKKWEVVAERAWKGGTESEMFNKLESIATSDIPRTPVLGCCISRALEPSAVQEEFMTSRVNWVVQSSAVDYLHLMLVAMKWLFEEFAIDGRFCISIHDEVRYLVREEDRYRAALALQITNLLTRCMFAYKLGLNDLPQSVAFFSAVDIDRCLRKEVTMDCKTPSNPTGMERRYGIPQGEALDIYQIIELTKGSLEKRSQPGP
T1 sequence (Q9UHN1 1-485 partner): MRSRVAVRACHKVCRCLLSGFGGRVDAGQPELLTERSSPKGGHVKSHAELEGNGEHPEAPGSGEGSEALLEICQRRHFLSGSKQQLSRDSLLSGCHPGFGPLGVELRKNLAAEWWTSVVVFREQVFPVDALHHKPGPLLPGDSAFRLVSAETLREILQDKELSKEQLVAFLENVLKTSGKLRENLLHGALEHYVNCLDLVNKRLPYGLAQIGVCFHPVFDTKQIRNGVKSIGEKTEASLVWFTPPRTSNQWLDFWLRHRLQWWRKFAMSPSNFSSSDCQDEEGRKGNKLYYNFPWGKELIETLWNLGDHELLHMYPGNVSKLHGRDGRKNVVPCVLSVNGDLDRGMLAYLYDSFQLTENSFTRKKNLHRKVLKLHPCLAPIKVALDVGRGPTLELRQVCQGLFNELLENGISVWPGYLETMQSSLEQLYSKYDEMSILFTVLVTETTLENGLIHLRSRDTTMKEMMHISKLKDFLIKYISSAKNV
As to the kind of experiment: DNA polymerization assay, POLγA:A467T mutant. The experiment is classed as biochemical. To be noted: stimulation of polymerase activity, primed M13mp18 ssDNA, 37° C. 2 hours; read-out: A467T AC50. As for the experimental part:
DNA Polymerization Assay to Monitor Effects on Human Wildtype POLγ and Four Disease-Causing Mutant Variants of Human POLγ.
The ability of small molecules to stimulate the polymerase activity of POLγ was analyzed in a quantitative fluorescence SYBR Green I assay with fluorescence intensity (FI) readout.
In the presence of dNTPs, wild type human POLγ and mutant derivatives thereof were incubated with single-stranded, circular M13mp18 ssDNA hybridized to a short DNA oligonucleotide that functions as a primer for initiation of DNA synthesis. POLγ and mutant derivatives thereof will extend the primer and use the M13mp18 molecule as a template to synthesize long stretches of double-stranded DNA. SYBR Green I, which is a double-stranded DNA-binding dye, was used to quantify formation of double-stranded DNA in the reaction. When bound to double-stranded DNA, SYBR Green I fluorescence increases by up to 100-fold.
The assay was performed in the 384-well plate format. Upon addition of compounds, changes in double-stranded DNA synthesis activity can be monitored by following effects on fluorescent intensity.
The reactions also contained the accessory POLγB subunit, and the human mitochondrial single-stranded DNA binding protein (mtSSB).
The DNA template mixture used in the assay contained 0.5 nM primed M13 mp18 ssDNA, 400 nM mtSSB, 0.1 mM Tris-HCl (pH 8.0), 0.1 mM dNTP, 10 mM MgCl2, 0.1 mg/mL BSA, 1 mM TCEP solution, and 0.02% Triton X-100. The DNA template mixture for the wild type protein contained either 100 μM dNTP, 1 μM dNTP, or 0.1 μM dNTP, designated in Table 2 as 100 μM, 1 μM, and 0.1 μM, respectfully.
Microplates with compounds (0.1 μL in each well) to be tested in the assay were prepared from 10 mM compound stocks in 100% DMSO, and equal amounts of DMSO without any compound were added to positive and negative control wells.
The protein mixture was dispensed (5 μL into each well) into compound plates and incubated at 37° C. for 15 minutes. After incubation, 5 μL of the DNA template mixture was dispensed into each well. The plates were then incubated at 37° C. for 2 hours.
During incubation, a combined stop buffer and detection reagent solution was prepared. The buffer contained 25 mM EDTA (pH 8.0), 0.02% Triton X-100, and SYBR Green I [Invitrogen] diluted 10,000× (for fluorescent readout). EDTA will stop the enzymatic reaction by chelating magnesium ions.
In the case of `Cc1cnc(-c2ccc(C)c(NS(=O)(=O)c3cc(C)c(Cl)cc3C)c2)s1` [Example 98, 4-chloro-2,5-dimethyl-N-(2-methyl-5-(5-methylthiazol-2-yl)phenyl)benzenesulfonamide], the AC50 is over 100 µM.
In the case of `Cc1nc2c(NS(=O)(=O)c3cc(C)c(Cl)cc3C)cccc2s1` [Example 99, 4-chloro-2,5-dimethyl-N-(2-methylbenzo[d]thiazol-4-yl)benzenesulfonamide], the AC50 was over 100 µM.
Take `Cc1cc(S(=O)(=O)N[C@@H]2CCCN(C(=O)[C@H]3CCCN3C)C2)c(C)cc1Cl` [Example 100, 4-chloro-2,5-dimethyl-N-((R)-1-(methyl-D-prolyl)piperidin-3-yl)benzenesulfonamide]: the AC50 was over 100 µM.
Turning to `Cc1cc(S(=O)(=O)N[C@H]2CCCN(C(=O)[C@@H]3CCCN3C)C2)c(C)cc1Cl` [Example 101, 4-chloro-2,5-dimethyl-N-((S)-1-(methyl-L-prolyl)piperidin-3-yl)benzenesulfonamide], the AC50 is over 100 µM.
With `Cc1cnc(-c2ccc(Cl)c(NS(=O)(=O)c3cc(C)c(Cl)cc3C)c2)s1` [Example 102, 4-chloro-N-(2-chloro-5-(5-methylthiazol-2-yl)phenyl)-2,5-dimethylbenzenesulfonamide] the figure was over 100 µM; with `Cc1cnc(-c2cc(NS(=O)(=O)c3cc(C)c(Cl)cc3C)ccc2C)s1` [Example 103, 4-chloro-2,5-dimethyl-N-(4-methyl-3-(5-methylthiazol-2-yl)phenyl)benzenesulfonamide], over 100 µM; with `Cc1cc(S(=O)(=O)N[C@@H]2CCCN(C(=O)[C@@H]3CCCN3C)C2)c(C)cc1Cl` [Example 104, 4-chloro-2,5-dimethyl-N-((R)-1-(methyl-L-prolyl)piperidin-3-yl)benzenesulfonamide], over 100 µM.
With `Cc1cc(S(=O)(=O)Nc2cccc(C(=O)N3CCCC4(CC4)C3)c2)c(C)cc1Cl` [Example 105, N-(3-(5-azaspiro[2.5]octane-5-carbonyl)phenyl)-4-chloro-2,5-dimethylbenzenesulfonamide] the figure was over 100 µM; with `Cc1cc(S(=O)(=O)Nc2cccc(C(=O)N3CCCOC(C)(C)C3)c2)c(C)cc1Cl` [Example 106, 4-chloro-N-(3-(2,2-dimethyl-1,4-oxazepane-4-carbonyl)phenyl)-2,5-dimethylbenzenesulfonamide], over 100 µM; with `Cc1cc(S(=O)(=O)Nc2cccc(C(=O)N3CCc4cn[nH]c4C3)c2)c(C)cc1Cl` [Example 107, 4-chloro-2,5-dimethyl-N-(3-(4,5,6,7-tetrahydro-1H-pyrazolo[3,4-c]pyridine-6-carbonyl)phenyl)benzenesulfonamide], 28 µM.
As for `Cc1cc(S(=O)(=O)Nc2cccc(C(=O)N3C[C@H](C)[C@@H](N)C3)c2)c(C)cc1Cl` [Example 108, N-(3-((3R,4S)-3-amino-4-methylpyrrolidine-1-carbonyl)phenyl)-4-chloro-2,5-dimethylbenzenesulfonamide], the AC50 was over 100 µM.
As to `Cc1cc(S(=O)(=O)Nc2cccc(C(=O)N(C)c3ccccn3)c2)c(C)cc1Cl` [Example 109, 3-((4-chloro-2,5-dimethylphenyl)sulfonamido)-N-methyl-N-(pyridin-2-yl)benzamide], the AC50 was over 100 µM.
Consider `Cc1cc(NS(=O)(=O)c2cc(C)c(Cl)cc2C)cc(-c2ncc(C)s2)c1` [Example 110, 4-chloro-2,5-dimethyl-N-(3-methyl-5-(5-methylthiazol-2-yl)phenyl)benzenesulfonamide], for which the AC50 is over 100 µM.
Turning to `Cc1cnc(-c2cc(NS(=O)(=O)c3cc(C)c(Cl)cc3C)ccc2Cl)s1` [Example 111, 4-chloro-N-(4-chloro-3-(5-methylthiazol-2-yl)phenyl)-2,5-dimethylbenzenesulfonamide], the half-maximal activity concentration (AC50) was over 100 µM.
With `Cc1cc(S(=O)(=O)Nc2cccc(C(=O)N(C(C)C)C3COC3)c2)c(C)cc1Cl` [Example 112, 3-((4-chloro-2,5-dimethylphenyl)sulfonamido)-N-isopropyl-N-(oxetan-3-yl)benzamide] the figure was over 100 µM.
With `Cc1cc(S(=O)(=O)Nc2cccc(C(=O)N(CC(N)=O)C3CCCC3)c2)c(C)cc1Cl` [Example 113, N-(2-amino-2-oxoethyl)-3-((4-chloro-2,5-dimethylphenyl)sulfonamido)-N-cyclopentylbenzamide] the figure was over 100 µM; with `Cc1cc(S(=O)(=O)Nc2cccc(C(=O)N3CCc4ncnc(C)c4C3)c2)c(C)cc1Cl` [Example 114, 4-chloro-2,5-dimethyl-N-(3-(4-methyl-5,6,7,8-tetrahydropyrido [4,3-d]pyrimidine-6-carbonyl)phenyl)benzenesulfonamide], over 100 µM.
For `Cc1cc(S(=O)(=O)Nc2cccc(C(=O)N3C[C@@H](F)C[C@H](F)C3)c2)c(C)cc1Cl` [Example 115, 4-chloro-N-(3-((3S,5S)-3,5-difluoropiperidine-1-carbonyl)phenyl)-2,5-dimethylbenzenesulfonamide], the AC50 is over 100 µM.
Turning to `Cc1cc(Cl)ccc1S(=O)(=O)Nc1cccc(C(=O)N2CCC[C@H]2C)c1` [Example 116, (R)-4-chloro-2-methyl-N-(3-(2-methylpyrrolidine-1-carbonyl)phenyl)benzenesulfonamide], the AC50 is over 100 µM.
For `Cc1cc(S(=O)(=O)Nc2cccc(C(=O)N3CCC[C@H]3C)c2)ccc1Cl` [Example 117, (R)-4-chloro-3-methyl-N-(3-(2-methylpyrrolidine-1-carbonyl)phenyl)benzenesulfonamide], the AC50 was over 100 µM.
With `C[C@@H]1CCCN1C(=O)c1cccc(NS(=O)(=O)c2ccc(C(F)(F)F)cc2)c1` [Example 118, (R)-N-(3-(2-methylpyrrolidine-1-carbonyl)phenyl)-4-(trifluoromethyl)benzenesulfonamide] the figure was over 100 µM.

The AC50 is the concentration giving half of the maximal activity seen.
